# Assay results from publication PMC5078989, “Targeted inhibition of the COP9 signalosome for treatment of cancer” (Nature Communications, 2016).
# Tested on: panel of cancer cell lines
# Experiment: Cell viability (CellTiter-Glo) dose-response across cancer cell line panel;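 further: after 72 h compound incubation with CellTiter-Glo ATP readout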
# Type: cell-based, human
# Settings: Homo sapiens
# Description: Next, we explored the effect of CSN5 inhibition on the viability of cancer cells. To obtain a comprehensive picture, we generated dose–response curves with a CSN5 inhibitor across more than 500 cancer cell lines in a previously described standardized setting[47] (Supplementary Data 1).
# A standardized CellTiter-Glo Assay (Promega #G7570) based on the quantification of ATP was applied according to the manufacturer's protocol to measure the amount of viable cells in culture. In brief, cells were seeded into 384-well plates at optimal density for each cell line. After 4 h, compounds were added at different concentrations in growth medium and incubated for another 72 h in a humidifying chamber at 37 °C and 5% CO2. […] EC50 values were calculated from the plot of percentage of inhibition versus inhibitor concentration using the nonlinear regression analysis software Origin 7.5SR6 (OriginLab Corp.).
smiles,measurement,setting,value
"COCc1ccccc1NCc1ccc([C@@H]2[C@H](O)CCCc3cncn32)c(-c2ccccc2Cl)c1 [CSN5i-2e, (5R,6R)-5-(2′-chloro-5-(((2-(methoxymethyl)phenyl)amino)methyl)-[1,1′-biphenyl]-2-yl)-6,7,8,9-tetrahydro-5H-imidazo[1,5-a]azepin-6-ol]",EC50,"MSTO-211H, MSTO-211H cells",10.8 µM
same,EC50,"MV4-11, MV-4-11 cells",6.71 µM
same,EC50,"Malme-3M, Malme-3M cells",13.6 µM
same,EC50,"Mono-Mac-1, MONO-MAC-1 cells",3.69 µM
same,EC50,"NALM-6, NALM-6 cells",6.94 µM
same,EC50,"NB1, NB-1 cells",11.7 µM
same,EC50,"NB-4, NB-4 cells",8.86 µM
same,EC50,"NCI-H23, NCI-H23 cells",23.9 µM
same,EC50,"NCI-H28, NCI-H28 cells",15 µM
same,EC50,"NCI-H146, NCI-H146 cells",11.6 µM
same,EC50,"NCI-H211, NCI-H211 cells",20.6 µM
same,EC50,"NCI-H322, NCI-H322 cells",12.9 µM
same,EC50,"NCI-H441, NCI-H441 cells",24.7 µM
same,EC50,"NCI-H460, NCI-H460 cells",10.1 µM
same,EC50,"NCI-H661, NCI-H661 cells",20.1 µM
same,EC50,"NCI-H747, NCI-H747 cells",10.7 µM
same,EC50,"NCI-H810, NCI-H810 cells",> 30 µM
same,EC50,"NCI-H838, NCI-H838 cells",> 30 µM
same,EC50,"NCI-H841, NCI-H841 cells",11 µM
same,EC50,"NCI-H1048, NCI-H1048 cells",15.8 µM
same,EC50,"NCI-H1155, NCI-H1155 cells",8.05 µM
same,EC50,"NCI-H1299, NCI-H1299 cells",8.56 µM
same,EC50,"NCI-H1339, NCI-H1339 cells",11.2 µM
same,EC50,NCI-H1341 cells,10.2 µM
same,EC50,"NCI-H1355, NCI-H1355 cells",12 µM
same,EC50,"NCI-H1373, NCI-H1373 cells",13 µM
same,EC50,"NCI-H1437, NCI-H1437 cells",11.7 µM
same,EC50,"NCI-H1568, NCI-H1568 cells",11.2 µM
same,EC50,"NCI-H1581, NCI-H1581 cells",7.75 µM
same,EC50,"NCI-H1650, NCI-H1650 cells",12.6 µM
same,EC50,"NCI-H1666, NCI-H1666 cells",12.9 µM
same,EC50,"NCI-H1693, NCI-H1693 cells",14.7 µM
same,EC50,"NCI-H1703, NCI-H1703 cells",6.5 µM
same,EC50,"NCI-H1755, NCI-H1755 cells",12.8 µM
same,EC50,"NCI-H1975, NCI-H1975 cells",11.3 µM
same,EC50,"NCI-H2023, NCI-H2023 cells",12.4 µM
same,EC50,"NCI-H2030, NCI-H2030 cells",29.9 µM
same,EC50,"NCI-H2073, NCI-H2073 cells",20.3 µM
same,EC50,"NCI-H2087, NCI-H2087 cells",13 µM
same,EC50,"NCI-H2110, NCI-H2110 cells",11.8 µM
same,EC50,"NCI-H2122, NCI-H2122 cells",10.1 µM
same,EC50,"NCI-H2170, NCI-H2170 cells",10.4 µM
same,EC50,"NCI-H2171, NCI-H2171 cells",17.6 µM
same,EC50,"NCI-H2228, NCI-H2228 cells",> 30 µM
same,EC50,"NCI-H2286, NCI-H2286 cells",10.5 µM
same,EC50,"NCI-H2444, NCI-H2444 cells",11.6 µM
same,EC50,"NCI-H2452, NCI-H2452 cells",> 30 µM
same,EC50,"NCI-H3255, NCI-H3255 cells",13.2 µM
same,EC50,NO36 cells,13.1 µM
same,EC50,"NOMO-1, NOMO-1 cells",7.28 µM
same,EC50,"NUGC-3, NUGC-3 cells",9.54 µM
same,EC50,"OCI-AML-3, OCI-AML3 cells",7.14 µM
same,EC50,"OCI-AML-5, OCI-AML5 cells",9.5 µM
same,EC50,"OCI-Ly3, OCI-LY3 cells",5.42 µM
same,EC50,"OCI-M1, OCI-M1 cells",7.25 µM
same,EC50,"ONCO-DG-1, ONCO-DG-1 cells",7.45 µM
same,EC50,"OUMS-23, OUMS-23 cells",12.2 µM
same,EC50,"OV56, OV56 cells",12.7 µM
same,EC50,"OVCAR-4, OVCAR-4 cells",9.93 µM
same,EC50,OVISE cells,12.1 µM
same,EC50,"P3HR-1, P3HR-1 cells",7.82 µM
same,EC50,"P12-Ichikawa, P12-ICHIKAWA cells",7.02 µM
same,EC50,"P31-FUJ, P31/FUJ cells",13.4 µM
same,EC50,"PANC-1, PANC-1 cells",12.2 µM
same,EC50,"PANC-03-27, Panc 03.27 cells",21.9 µM
same,EC50,"PC-3, PC-3 cells",10.7 µM
same,EC50,"PC-14, PC-14 cells",12.6 µM
same,EC50,PE/CA-PJ49 cells,12.7 µM
same,EC50,"PF-382, PF-382 cells",4.99 µM
same,EC50,"PK-1, PK-1 cells",15.9 µM
same,EC50,PK-45H cells,9.52 µM
same,EC50,"PK-59, PK-59 cells",11.5 µM
same,EC50,"PL-21, PL-21 cells",6.39 µM
same,EC50,"PLC-PRF-5, PLC/PRF/5 cells",19.8 µM
same,EC50,"PSN1, PSN1 cells",11 µM
same,EC50,"PaTu 8988s, PA-TU-8988S cells",26.6 µM
same,EC50,"PaTu 8988t, PA-TU-8988T cells",10.6 µM
same,EC50,"Panc 02.03, Panc 02.03 cells",> 30 µM
same,EC50,"Panc 04.03, Panc 04.03 cells",13.1 µM
same,EC50,"QGP-1, QGP-1 cells",11.8 µM
same,EC50,"RCM-1, RCM-1 cells",13.6 µM
same,EC50,"RD, RD cells",9.86 µM
same,EC50,RERF-LC-AI cells,11.7 µM
same,EC50,RERF-LC-MS cells,24.1 µM
same,EC50,RKN cells,28.9 µM
same,EC50,"RKO, RKO cells",17.9 µM
same,EC50,"RPMI 8402, RPMI-8402 cells",7.36 µM
same,EC50,"RPMI-7951, RPMI-7951 cells",11.4 µM
same,EC50,"RT-112, RT-112 cells",11.2 µM
same,EC50,"Rh41, RH-41 cells",4.52 µM
same,EC50,"SCC-25, SCC-25 cells",11.6 µM
same,EC50,"SCaBER, SCaBER cells",> 30 µM
same,EC50,SEM cells,9.47 µM
same,EC50,"SF-268, SF-268 cells",12.7 µM
same,EC50,"SH-4, SH-4 cells",11.1 µM
same,EC50,"SH-10-TC, SH-10-TC cells",10.6 µM
same,EC50,"SH-SY5Y, SH-SY5Y cells",8.13 µM
same,EC50,"SJRH30, SJRH30 cells",15.5 µM
same,EC50,"SK-CO-1, SK-CO-1 cells",10.7 µM
same,EC50,"SK-ES1, SK-ES-1 cells",13.2 µM
same,EC50,"SK-HEP1, SK-HEP-1 cells",> 30 µM
same,EC50,"SK-LU-1, SK-LU-1 cells",8.59 µM
same,EC50,"SK-MEL3, SK-MEL-3 cells",10.3 µM
same,EC50,"SK-MEL-2, SK-MEL-2 cells",14.9 µM
same,EC50,"SK-MEL-5, SK-MEL-5 cells",10.6 µM
same,EC50,"SK-MEL-28, SK-MEL-28 cells",13.2 µM
same,EC50,"SK-MEL-30, SK-MEL-30 cells",12.1 µM
same,EC50,SK-MEL-31 cells,23.9 µM
same,EC50,"SK-MES-1, SK-MES-1 cells",28 µM
same,EC50,"SK-N-SH, SK-N-SH cells",26.6 µM
same,EC50,"SKM-1, SKM-1 cells",13.6 µM
same,EC50,"SKNBE2, SK-N-BE(2) cells",11.4 µM
same,EC50,"SNB-19, SNB-19 cells",25 µM
same,EC50,SNG-M cells,20.9 µM
same,EC50,"SNU668, SNU-668 cells",11.5 µM
same,EC50,"SNU878, SNU-878 cells",7.43 µM
same,EC50,SNU-8 cells,> 30 µM
same,EC50,"SNU-16, SNU-16 cells",8.93 µM
same,EC50,SNU-61 cells,> 30 µM
same,EC50,SNU-175 cells,17.1 µM
same,EC50,SNU-213 cells,13.4 µM
same,EC50,SNU-324 cells,12.8 µM
same,EC50,SNU-349 cells,> 30 µM
same,EC50,"SNU-387, SNU-387 cells",9.94 µM
same,EC50,"SNU-398, SNU-398 cells",6.84 µM
same,EC50,SNU-410 cells,22.2 µM
same,EC50,"SNU-423, SNU-423 cells",12.7 µM
same,EC50,"SNU-449, SNU-449 cells",25.6 µM
same,EC50,"SNU-475, SNU-475 cells",> 30 µM
